Measurements as given in US8409600B2, “Methods for prevention and/or treatment of capsular contracture” (J&E Solutions, LLC, priority 2009, dated 2013).

Test system: breast capsular contracture
Experiment: Clinical cases: topical treatment of breast capsular contracture (Baker grade)
Type: in vivo, human
Settings: Patient #1, Aleve and massage after first revision (bilateral Grade 3 capsular contracture)
Description: The methods of the present invention for prevention of capsular contracture comprise topical application of the composition using the following steps: • Wash and dry the affected area (that is, the skin surrounding the implant or the skin over the capsular contracture) prior to use. • Apply the composition daily (use sparingly) with vigorous massage to affected area. If necessary, exert compression or pressure when massaging to break up existing capsule. Enhanced absorption is obtained with application of the composition following a hot shower. Occlusive dressing (hydrogel), or tight clothing (sports bras), will also enhance the result. Continued daily use will yield optimal results. […] Optimal results are best maintained with daily continued application. One particularly useful embodiment of the invention involves the use of the topical compositions for the treatment/prevention of capsular contracture in breast surgery (e.g., breast implants). There are four grades of breast capsular contracture—Baker grades I through IV. The Baker grading is as follows: • Grade I—the breast is normally soft and looks natural • Grade II—the breast is a little firm but looks normal • Grade III—the breast is firm and looks abnormal • Grade IV—the breast is hard, painful, and looks abnormal. • of developed or is at risk of developing capsular contracture a topical composition. Clinical Cases Patient #1

In the case of `COc1ccc2cc([C@H](C)C(=O)O)ccc2c1` [Aleve, naproxen sodium], the “response of capsular contracture to treatment” value is reported as “without result”.
